For two compounds, Activity and inhibition results are on record in ChEMBL document CHEMBL4732022, “Generation of reactive oxygen species is the primary mode of action and cause of survivin suppression by sepantronium bromide (YM155)” (RSC Med Chem, 2021).

One data set has as its system MCF-10A. Put plainly: Cytotoxicity against human MCF-10A cells at 200 uM. Format: cell-based.
Data set [1] deals with Baculoviral IAP repeat-containing protein 5 (Homo sapiens) (UniProt O15392). As to the kind of experiment: Inhibition of survivin in human MDA-MB-231 cells assessed as reduction in survivin mRNA expression measured after 72 hrs by qPCR analysis. Format: cell-based. In general terms: In qPCR the cycle at which signal appears reflects the starting amount.
Chain of Baculoviral IAP repeat-containing protein 5 (Homo sapiens) (O15392 whole entry): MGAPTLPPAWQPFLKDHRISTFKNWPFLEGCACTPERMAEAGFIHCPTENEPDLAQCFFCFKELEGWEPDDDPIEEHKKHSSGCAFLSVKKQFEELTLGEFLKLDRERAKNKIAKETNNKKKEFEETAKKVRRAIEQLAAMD
Data set [2] shares this target. Put plainly: Inhibition of survivin in human BT-20 cells assessed as reduction in survivin mRNA expression measured after 72 hrs by qPCR analysis. It counts as cell-based.
The target is the same in data set [3]. As to the kind of experiment: Inhibition of survivin in human MDA-MB-453 cells assessed as reduction in survivin mRNA expression measured after 72 hrs by qPCR analysis. It counts as cell-based.
Data set [4] has as its system MDA-MB-231. As to the kind of experiment: Induction of ROS generation in human MDA-MB-231 cells assessed as increase in ROS level at 1 mM incubated for 12 hrs by […] based assay. Format: functional, cell-based.
In data set [5] the test system is MDA-MB-231. Put plainly: Downregulation of survivin protein expression in human MDA-MB-231 cells at 1 mM incubated for 72 hrs by Western blot analysis. It counts as functional, cell-based.
Data set [6] concerns MDA-MB-231. Put plainly: Induction of ROS generation in human MDA-MB-231 cells assessed as increase in ROS level at 20 uM incubated for 12 hrs by […] based assay. It counts as functional, cell-based.
Data set [7] relates to MDA-MB-231. As to the kind of experiment: Downregulation of survivin protein expression in human MDA-MB-231 cells at 20 uM incubated for 72 hrs by Western blot analysis. It counts as functional, cell-based. On the technique in general: A western blot detects proteins with antibodies after separation by electrophoresis.

Activity calls are given as the source filed them. No cut-off for these calls is given here.

Regarding `CCCCS(=N)(=O)CCC(N)C(=O)O` (stereo unspecified) [BUTHIONINE SULFOXIMINE], in the data set on MCF-10A, the Activity result is “Non-Toxic”. Further, the inhibition entry in data set [1], in data set [2] and in data set [3] was “Active” throughout. The result with MDA-MB-231 [4] and with MDA-MB-231 [5] was Active.

Regarding `CC1=CC(=O)c2ccccc2C1=O`, the inhibition result in data set [1], in data set [2] and in data set [3] was “Active” in each case. For the same compound, the result in the data set on MDA-MB-231 [6] and in the data set on MDA-MB-231 [7] was Active.
